This is an account of results in ChEMBL document CHEMBL1143054, “Antimalarial linear lipopeptides from a Panamanian strain of the marine cyanobacterium Lyngbya majuscula” (J Nat Prod, 2007).

Experiment [1] has as its system Plasmodium falciparum. Put plainly: Antimalarial activity against chloroquine-resistant Plasmodium falciparum W2 by fluorimetry. Type of experiment: functional, organism-based.
For experiment [2], the system named is Vero. Put plainly: Cytotoxicity against Vero cells after 4 hrs. It counts as cell-based. The following applies: Chlorocebus sabaeus.

Molecules are shown by their SMILES. Non-standard residues stand in square brackets, D forms with d. Residues, ends and D or L forms follow the SMILES beside them. *: point of attachment. NMeY = CN[C@@H](Cc1ccc(O)cc1)C(=O)O; NMeF = CN[C@@H](Cc1ccccc1)C(=O)O; NMeV = CN[C@H](C(=O)O)C(C)C; X1 = C#CCCCCC(C)CC(C)C(=O)*; X2 = C#CCCCC[C@H](C)C(=O)*; NMeA = CN[C@@H](C)C(=O)O

As a reminder, the IC50 is the concentration at which inhibition is half-maximal. Read a high IC50 as a need for much substance. For the compound `C#CCCCC[C@H](C)C(=O)N(C)[C@H](C(=O)N(C)[C@H](C(=O)N(C)[C@H](C(=O)N(C)[C@@H](Cc1ccccc1)C(N)=O)C(C)C)C(C)C)C(C)C` [DRAGONAMIDE A] (X2-[NMeV][NMeV][NMeV][NMeF]-NH2), the IC50 in experiment [1] was 10.7 µM; in experiment [2], 67.8 µM.
In the same order, the values of `C#CCCCCC(C)CC(C)C(=O)N(C)[C@@H](Cc1ccccc1)C(=O)N[C@@H](C)C(=O)N(C)[C@@H](C)C(=O)N(C)[C@@H](Cc1ccc(OC)cc1)C(N)=O` (stereo partly specified) [CARMABIN A] (X1-[NMeF]A[NMeA][NMeY](Me)-NH2) are 1.4 µM and 9.8 µM.
Regarding `C#CCCCC[C@H](C)C(=O)N(C)[C@@H](Cc1ccccc1)C(=O)N[C@@H](C)C(=O)N(C)[C@@H](C)C(=O)N(C)[C@@H](Cc1ccc(OC)cc1)C(N)=O` [DRAGOMABIN] (X2-[NMeF]A[NMeA][NMeY](Me)-NH2), the IC50 was determined as 21 µM in experiment [1] and 182 µM in experiment [2].
